# Patent publication US10584127B2, “3,3-difluoropiperidine carbamate heterocyclic compounds as NR2B NMDA receptor antagonists” (Rugen Holdings (Cayman) Limited, priority 2015, dated 2020)
# Columns and labels:
# [1] = tested on: NMDA receptor (all subtypes), native rat brain receptors; experiment: [3H] MK-801 radioligand binding assay, rat brain membranes; settings: 2 nM [3H] MK-801, rat brain membranes
# Method: This example describes NMDA receptor binding assays using two different radioligands, [^3H] […] An established binding assay using the non-selective NMDA receptor ligand [^3H] […] The binding assay method using the NR2B selective receptor ligand [^3H] […] This assay serves as a selective measure of NR2B receptor binding activity in native rat brain receptors. Briefly, the brains of Male Wistar rats were homogenized (Polytron) before centrifugation at 40,000×g for 15 minutes at 4° C. After 2 washes, the final pellet was homogenized and stored at −80° C. The protein concentration was determined by Bradford assay.
# Test compounds were solubilized at 10 mM in DMSO. Then the dilutions were performed with a constant solvent concentration (1% DMSO) in the assay.
# After incubation for 4.5 h at room temperature, the assays were filtered on GF/B filters pretreated with 0.3% (v/v) PEI with a Brandel system for [^3H] […] The experiment was performed in duplicate (n=2).
# CYP2D6 = CYP2D6 (Homo sapiens (Human), UniProt P10635); experiment: CYP P450 enzyme inhibition, pooled human liver microsome; format: in vitro ADME; settings: HLM, dextromethorphan 5 μM
# cloned human NR1/NR2A = cloned human NR1/NR2A (Homo sapiens (Human), UniProt Q12879); experiment: NR2A antagonist activity, Fluo-4 calcium influx in HEK293 cells; format: cell-based; settings: glutamate 100 μM, glycine 50 μM
# [2] = tested on: electroconvulsive threshold (tonic convulsions); experiment: Electroconvulsive Threshold Test (ECT); format: in vivo, rats; settings: rats
# Method: Rats were administered ECS (rectangular current: 0.6 ms pulse width, 1.5 s duration, 200 Hz) via earclip electrodes connected to a constant current shock generator (Ugo Basile: type 7801). Test compounds were administered by oral gavage (p.o.) 1 hour before the test at a dose volume of 5 mL/kg.
# Treatment groups of 20 rats were exposed to ECS as follows: The first animal was exposed to 30 mA of ECS. […] (increases of 5 mA) until the first tonic convulsion was observed. Once the first tonic convulsion was observed, the intensity of ECS was decreased by 2 mA for the next animal and then decreased or increased by 2 mA from animal to animal depending on whether the previous animal convulsed or not. If the first animal did convulse (tonic convulsions) within 5 seconds, animal n°2 is exposed to 25 mA, etc . . . (decreases of 5 mA) until the absence of tonic convulsions was observed. At this point, the intensity of ECS was increased by 2 mA for the next animal and then decreased or increased by 2 mA from animal to animal depending on whether the previous animal convulsed or not. The minimum current intensity applied is 5 mA and the maximum 95 mA. The first 5 animals serve to approach threshold current and were not included in the analysis. The results are presented as the mean current intensity administered to the final 15 animals of a group. The test was performed blind. A positive percent change indicates an anticonvulsant effect. A negative percent change indicates a proconvulsant effect. The test substance was evaluated at 4 doses, typically using 0.5% dimethylsulfoxide, 4% hydroxypropyl-b-cyclodextrin water as a vehicle, and administered p.o. 60 minutes before ECS, and compared with a vehicle control group. Diazepam (16 mg/kg p.o.), administered under the same experimental conditions, was used as reference substance. The experiment included 6 groups. Data with the test substance was analyzed by comparing treated groups with vehicle control using one-way ANOVA followed by Dunnett's t tests.
# [3] = tested on: pentylenetetrazole-induced convulsions; experiment: Pentylenetetrazole (PTZ) Seizure Test; format: in vivo, rats; settings: 10 mg/kg p.o., mesylate salt, PTZ 100 mg/kg s.c.
# Method: Rats, placed in individual macrolon cages (25×19×13 cm), were injected with pentylenetetrazole (PTZ) (100 mg/kg s.c.). The occurrence and latency of clonic and tonic convulsions and death were noted over a 30 minute period. 15 rats were studied per group. The test was performed blind.
# (§1) Test compound E1-8.2 was administered as the free base.
# Compounds were evaluated typically using 0.5% dimethylsulfoxide, 4% hydroxypropyl-b-cyclodextrin water as a vehicle at 1 or more doses (e.g., 1, 3 and 10 mg/kg), administered p.o. 30 minutes before PTZ, and compared with a vehicle control group. Diazepam (16 mg/kg p.o.), administered 60 minutes before PTZ, was used as reference substance. The experiment was performed over 2 separate sub-experiments with N=7 to 8 animals per group and per sub-experiment. Quantitative data (latencies) with the test substance was analyzed by comparing treated groups with vehicle control using Kruskal-Wallis test followed by Mann-Whitney U test. Quantitative data with the reference substance was analyzed using Mann-Whitney U test. Quantal data (frequencies) was analyzed by comparing treated groups with vehicle control using Fisher's Exact Probability tests (*=p<0.05; **=p<0.01; ***=p<0.001).
# [4] = tested on: immobility in forced swim test; experiment: Forced Swim Test (FST) in mice; format: in vivo
# Source text: (§2) The forced swim test (FST) also known at the behavioural despair test was used to evaluate antidepressant activity (Porsolt et al., 1977 Arch. Int. Pharmacodyn. 229: 327-336, Porsolt et al., 1977, Eur. J. Pharmacol. 47:379-391). Mice or rats that are forced to swim in a situation from which they cannot escape, rapidly become immobile. Drugs with antidepressant activity, such as imipramine, reduce the amount of time spent in the immobile state. Therefore, the amount of immobility time during a test conducted after drug administration represents a useful indicator of antidepressant activity (Lucki et al 2001 Psychopharmacology 155:315-322; Porsolt et al., 1977, Nature 266:730-732).
# as §1
# Testing for antidepressant activity was conducted in rats or mice according to the general procedures below.
# Mice were evaluated in a single swimming test session of 6 minutes. Mice were placed in a transparent plastic cylinder 24 cm high with a diameter of 13 cm containing 10 cm of water with ambient temperature control generally from 22±2° C. Mice were placed in the water for 6 minutes and the duration of immobility during the last 4 minutes was measured.
# Animals were observed by a blinded observer. […] The amount of time each animal spent in the immobile state (and the latency to the first bout of immobility) was recorded and used for statistical analysis of compound effect. Group differences were evaluated by student's t-test (reference substance) or one-way ANOVA followed by post-hoc Dunnett's test (test substances). […]
# Male mice (strain NLMN) weighing 25-35 g were used for testing. […] The mice were videotaped for 6 minutes, and the last 4 minutes of video were analyzed by a blinded observer off-line. […] The amount of time each animal spent in the immobile state was recorded and used for statistical analysis of compound effect. Group differences were evaluated by student's t-test or one-way ANOVA followed by post-hoc Dunnett's test. […]
# [5] = tested on: immobility in forced swim test; experiment: Forced Swim Test (FST) in rats; format: in vivo
# Source text: as §2
# Test compound E1-8.2 was administered as the free base. […]
# Male Wistar rats weighing 197-251 g were used for the rat test. Rats were evaluated according to a two-session procedure with a swimming session of 15 minutes on the first day of the experiment (Session 1) followed 24 hours later by a 5-minute swimming test (Session 2). […] Rats were placed in the water 24 h later for 5 minutes (Session 2) and the duration of immobility was measured.
# Animals were observed by a blinded observer. […] The amount of time each animal spent in the immobile state (and the latency to the first bout of immobility) was recorded and used for statistical analysis of compound effect. […]
# CYP2D6, sequence (P10635 whole entry): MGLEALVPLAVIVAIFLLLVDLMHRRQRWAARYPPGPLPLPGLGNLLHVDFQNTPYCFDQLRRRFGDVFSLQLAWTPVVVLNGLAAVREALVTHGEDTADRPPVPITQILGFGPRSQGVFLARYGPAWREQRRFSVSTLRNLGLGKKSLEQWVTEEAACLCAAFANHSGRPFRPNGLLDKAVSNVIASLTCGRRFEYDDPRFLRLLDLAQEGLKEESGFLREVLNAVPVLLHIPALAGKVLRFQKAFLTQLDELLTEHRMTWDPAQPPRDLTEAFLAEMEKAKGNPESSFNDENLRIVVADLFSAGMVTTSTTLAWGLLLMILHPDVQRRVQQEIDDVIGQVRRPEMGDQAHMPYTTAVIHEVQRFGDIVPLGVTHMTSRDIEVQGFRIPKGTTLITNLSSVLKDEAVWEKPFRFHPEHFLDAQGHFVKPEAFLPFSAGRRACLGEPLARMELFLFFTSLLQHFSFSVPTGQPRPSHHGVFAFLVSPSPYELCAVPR
# cloned human NR1/NR2A, sequence (Q12879 23-1464, other chains not shown): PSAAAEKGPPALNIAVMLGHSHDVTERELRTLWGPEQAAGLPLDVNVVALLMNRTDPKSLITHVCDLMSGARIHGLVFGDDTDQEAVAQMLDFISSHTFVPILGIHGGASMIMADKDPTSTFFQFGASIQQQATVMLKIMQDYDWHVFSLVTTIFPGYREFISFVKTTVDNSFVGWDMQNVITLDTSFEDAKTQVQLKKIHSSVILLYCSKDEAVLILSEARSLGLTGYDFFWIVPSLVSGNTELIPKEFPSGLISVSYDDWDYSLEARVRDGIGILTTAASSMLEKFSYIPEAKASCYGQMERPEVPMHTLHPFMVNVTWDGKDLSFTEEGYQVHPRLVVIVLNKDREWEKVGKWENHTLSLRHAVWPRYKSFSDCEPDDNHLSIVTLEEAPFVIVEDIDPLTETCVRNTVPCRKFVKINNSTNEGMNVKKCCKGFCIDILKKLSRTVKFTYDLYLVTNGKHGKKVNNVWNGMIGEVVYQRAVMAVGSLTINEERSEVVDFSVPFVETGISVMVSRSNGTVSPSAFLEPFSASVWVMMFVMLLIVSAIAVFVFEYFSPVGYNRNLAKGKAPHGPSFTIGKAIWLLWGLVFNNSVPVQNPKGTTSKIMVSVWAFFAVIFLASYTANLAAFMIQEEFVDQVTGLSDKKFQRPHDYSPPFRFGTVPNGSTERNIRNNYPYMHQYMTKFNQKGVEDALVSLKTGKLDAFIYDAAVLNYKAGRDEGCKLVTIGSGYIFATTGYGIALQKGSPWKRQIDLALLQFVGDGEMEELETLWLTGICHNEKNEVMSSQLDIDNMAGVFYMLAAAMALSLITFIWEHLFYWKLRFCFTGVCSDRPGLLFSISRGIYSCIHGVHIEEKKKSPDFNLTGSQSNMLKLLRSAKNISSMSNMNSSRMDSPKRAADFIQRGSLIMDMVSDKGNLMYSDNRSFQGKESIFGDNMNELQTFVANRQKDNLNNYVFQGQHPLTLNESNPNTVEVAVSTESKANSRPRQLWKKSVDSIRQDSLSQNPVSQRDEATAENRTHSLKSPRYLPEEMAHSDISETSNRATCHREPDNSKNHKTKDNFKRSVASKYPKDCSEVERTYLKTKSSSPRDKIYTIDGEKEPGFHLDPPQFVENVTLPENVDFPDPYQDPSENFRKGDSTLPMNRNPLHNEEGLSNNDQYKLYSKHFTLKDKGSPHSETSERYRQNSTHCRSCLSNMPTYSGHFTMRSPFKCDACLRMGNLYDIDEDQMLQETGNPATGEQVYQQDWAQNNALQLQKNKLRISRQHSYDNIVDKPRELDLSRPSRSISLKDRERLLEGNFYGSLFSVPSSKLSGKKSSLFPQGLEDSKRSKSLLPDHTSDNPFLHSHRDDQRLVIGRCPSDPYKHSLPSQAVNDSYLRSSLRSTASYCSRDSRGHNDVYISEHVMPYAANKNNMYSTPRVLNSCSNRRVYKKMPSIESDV
partial effect on [3H] MK-801 binding [1] [%],CYP2D6 @ 10 μM (%) (CYP2D6),SMILES,also measured
48,–,"CCc1ccc(COC(=O)N2CC[C@H](CNc3nccn4cnnc34)C(F)(F)C2)cc1 [Compound E1-1.5, R-4-ethylbenzyl 4-(([1,2,4]triazolo[4,3-a]pyrazin-8-ylamino)methyl)-3,3-difluoropiperidine-1-carboxylate]",–
33,83,"Cc1ccc(COC(=O)N2CC[C@H](CNc3ncc4cn[nH]c4n3)C(F)(F)C2)cc1 [Compound E1-8.2, (+)-R-4-methylbenzyl-4-((1H-pyrazolo[3,4-d]pyrimidin-6-ylamino)methyl)-3,3-difluoropiperidine-1-carboxylate]","IC50 (cloned human NR1/NR2A): > 10 µM; activity on electroconvulsive threshold ([2]; 0.5 and 2 mpk p.o., free base): modest proconvulsant activity; activity on electroconvulsive threshold ([2]; 10 and 20 mpk p.o., free base): anticonvulsant activity"
34,14,"Cc1ccc(COC(=O)N2CC[C@H](CNc3nc4ccccn4n3)C(F)(F)C2)cc1 [Compound E1-9.2, (+)-R-4-methylbenzyl 4-(([1,2,4]triazolo[1,5-α]pyridin-2-ylamino)methyl)-3,3-difluoropiperidine-1-carboxylate]",IC50 (cloned human NR1/NR2A): > 10 µM
49,97,"Cc1ccc(COC(=O)N2CC[C@H](CNc3cnccn3)C(F)(F)C2)cc1 [Compound E1-21.2, R-4-methylbenzyl 3,3-difluoro-4-((pyrazin-2-ylamino)methyl)piperidine-1-carboxylate]",–
–,93,"FC(F)(F)c1ccc(C(F)(F)CN2CCC(Nc3ncnc4[nH]ncc34)CC2)cc1 [LX-1, reference compound]",–

# The remaining lines, values behind:
SMILES,partial effect on [3H] MK-801 binding [1] [%],CYP2D6 @ 10 μM (%) (CYP2D6),also measured
"O=C(OCc1ccc(Cl)cc1)N1CC[C@H](CNc2nccn3cnnc23)C(F)(F)C1 [Compound E1-1.3, R-4-chlorobenzyl 4-(([1,2,4]triazolo[4,3-a]pyrazin-8-ylamino)methyl)-3,3-difluoropiperidine-1-carboxylate]",41,37,–
"O=C(OCc1ccc(F)cc1)N1CC[C@H](CNc2nccn3cnnc23)C(F)(F)C1 [Compound E1-1.4, R-4-fluorobenzyl 4-(([1,2,4]triazolo[4,3-a]pyrazin-8-ylamino)methyl)-3,3-difluoropiperidine-1-carboxylate]",32,19,–
"Cc1ccc(COC(=O)N2CC[C@H](CNc3cncc4nncn34)C(F)(F)C2)cc1 [Compound E1-2.2, R-4-methylbenzyl 4-(([1,2,4]triazolo[4,3-a]pyrazin-5-ylamino)methyl)-3,3-difluoropiperidine-1-carboxylate]",–,18,–
"Cc1ccc(COC(=O)N2CC[C@H](CNc3cnc(C)cn3)C(F)(F)C2)cc1 [Compound E1-21.26, R-4-methylbenzyl 3,3-difluoro-4-((5-methylpyrazin-2-ylamino)-methyl)piperidine-1-carboxylate]",41,32,"activity on electroconvulsive threshold ([2]; 3 and 10 mpk p.o., mesylate salt): anticonvulsant activity; latency to death, change vs vehicle controls [3]: +31%; number of deaths, change vs vehicle controls [3]: −82%"
"Cc1ccc(COC(=O)N2CC[C@@H](CNc3nccn4cnnc34)C(F)(F)C2)cc1 [Compound E2-1.2, (−)-S-4-methylbenzyl 4-(([1,2,4]triazolo[4,3-a]pyrazin-8-ylamino)methyl)-3,3-difluoropiperidine-1-carboxylate]",36,–,–
CN(C)CCCN1c2ccccc2CCc2ccccc21 [imipramine],–,–,"antidepressant activity (immobility time) ([4]; 32 mpk i.p. once 30 min before the test): expected antidepressant activity; antidepressant activity (immobility time) ([4]; 64 mpk p.o. once 60 min before the test): expected antidepressant activity; antidepressant activity (immobility time) ([4]; 128 mpk p.o. once 60 minutes before the test on Day 7): expected antidepressant activity; antidepressant activity (immobility time) ([5]; 32 mpk i.p. 3 times: 24 h, 4 h and 30 min before the test (Session 2)): expected antidepressant activity; antidepressant activity (immobility time) ([5]; 64 mpk p.o. 3 times: 24 h, 4 h and 60 min before the test (Session 2)): expected antidepressant activity"
"Cn1c(=O)c2[nH]cnc2n(C)c1=O [theophylline, reference compound]",–,–,activity on electroconvulsive threshold ([2]; 128 mpk p.o.): expected proconvulsant activity
